Test results from patent publication US6525059B1, “Substituted pyrazoles as p38 kinase inhibitors” (G. D. Searle & Company, priority 1998, dated 2003).
Values joined by “and” are separate entries in the source; they are usually repeats but may differ in a detail not shown here. Equal values may be shown once. Where a name gives a salt, the structure may show the parent alone.

Assays:
human TNF = assay: TNF inhibition: human whole blood assay; assay type: cell-based; conditions: Homo sapiens, Table 9, human whole blood, LPS; read-out: TNF Inhibition-Human Whole Blood Assay
TNF-α = assay: Rat assay: LPS-challenged rats, serum TNF-α by ELISA; assay type: in vivo; conditions: Rattus norvegicus, po; for inhibition in vivo at 20 mg/kg: Table 9, dose 20 mg/kg; for inhibition in vivo at 1 mg/kg: Table 9, dose 1 mg/kg; for inhibition in vivo at 1 mg/kg / inhibition in vivo at 5 mg/kg: read-out: Rat LPS Assay % Inhibition; for inhibition in vivo at 5 mg/kg: Table 9, dose 5 mg/kg
[1] = target: T1, human GST-p38 kinase alpha (Homo sapiens, UniProt Q16539); assay: p38 kinase in vitro assay, second format, phosphorylation of EGFRP with 33P-ATP; assay type: biochemical; conditions: Table 9, 10% DMSO; read-out: p38α Kinase Assay IC50
T1 construct: The coding region of the human p38a cDNA was obtained by PCR-amplification from RNA isolated from the human monocyte cell line THP.1; made in house; host or cells: E. coli DH10B
T1 sequence (Q16539 whole entry): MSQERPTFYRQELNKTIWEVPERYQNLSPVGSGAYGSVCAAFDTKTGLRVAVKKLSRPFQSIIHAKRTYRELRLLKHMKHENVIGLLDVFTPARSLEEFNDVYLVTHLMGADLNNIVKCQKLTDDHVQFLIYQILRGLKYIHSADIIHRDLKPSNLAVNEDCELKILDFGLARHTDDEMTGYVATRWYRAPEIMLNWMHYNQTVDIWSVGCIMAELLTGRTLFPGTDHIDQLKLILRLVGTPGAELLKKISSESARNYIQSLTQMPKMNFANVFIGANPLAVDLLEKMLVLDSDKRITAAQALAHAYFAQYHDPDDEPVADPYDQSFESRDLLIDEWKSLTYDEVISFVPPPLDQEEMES
Outline: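 Activated human GST-p38α (pre-activated with GST-MKK6, 1 h, 30 °C) phosphorylates EGFR 21-mer peptide (200 μM) with 50 μM ATP plus γ-33P-ATP, pH 7.5, 60 min at room temperature. Unreacted ATP removed by AG 1×8 resin; supernatant scintillation-counted.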

Compound	IC50 (human TNF) [nM]	inhibition in vivo at 20 mg/kg (TNF-α) [%]	IC50 [1]	inhibition in vivo at 1 mg/kg (TNF-α) [%]	inhibition in vivo at 5 mg/kg (TNF-α) [%]
Fc1ccc(-c2n[nH]c(N3CCC(N4CCCC4)CC3)c2-c2ccncc2)cc1 [Example A-357, 4-[3-(4-fluorophenyl)-5-(4-(1-pyrrolidinyl)-1-piperidinyl]-1H-pyrazol-4-yl]pyridine, trihydrochloride]	250	74	120 nM	–	–
CCN1CCCCC1CCNc1cc(-c2c[nH]nc2-c2ccc(F)cc2)ccn1 (stereo not shown) [Example A-358, N-[2-(1-ethyl-2-piperidinyl)ethyl]-4-[3-(4-fluorophenyl)-1H-pyrazol-4-yl]-2-pyridinamine]	4000	71	230 nM	–	–
CCN(CC)CCCC(C)Nc1[nH]nc(-c2ccc(F)cc2)c1-c1ccncc1 (stereo not shown) [Example A-359, N1,N1,-diethyl-N4-[5-(4-fluorophenyl)-4-(4-pyridinyl)-1H-pyrazol-3-yl]-1,4-pentanediamine]	1000	70	300 nM	–	–
CN(C)C1CCN(c2[nH]nc(-c3ccc(F)cc3)c2-c2ccncc2)CC1 [Example A-360, 1-[5-(4-fluorophenyl)-4-(4-pyridinyl)-1H-pyrazol-3-yl]-N,N-dimethyl-4-piperidinamine, trihydrochloride]	500	95	60 nM	0	14
OC[C@@H](Nc1cc(-c2c[nH]nc2-c2ccc(F)cc2)ccn1)c1ccccc1 [Example A-362, (βS)-β-[[4-[3-(4-fluorophenyl)-1H-pyrazol-4-yl]-2-pyridinyl]amino]benzene ethanol]	5500	0	690 nM	–	–
OC[C@H](Cc1ccccc1)Nc1cc(-c2c[nH]nc2-c2ccc(F)cc2)ccn1 [Example A-363, (βS)-β-[[4-[3-(4-fluorophenyl)-1H-pyrazol-4-yl]-2-pyridinyl]amino]benzene propanol]	25000	6	1500 nM	–	–
CCN(CC)CCCNc1n[nH]c(-c2ccc(F)cc2)c1-c1ccncc1 [Example A-364, N,N-diethyl-N′-[5-(4-fluorophenyl)-4-(4-pyridinyl)-1H-pyrazol-3-yl]-1,3-propanediamine]	255	79	490 nM	–	–
NC1CCN(c2[nH]nc(-c3ccc(F)cc3)c2-c2ccncc2)CC1 [Example A-365, 1-[5-(4-fluorophenyl)-4-(4-pyridinyl)-1H-pyrazol-3-yl]-4-piperidinamine, trihydrochloride]	57	95	32 nM	12	50
CCN(CC)CCCC(C)Nc1nccc(-c2c[nH]nc2-c2ccc(F)cc2)n1 (stereo not shown) [Example A-366, N1,N1-diethyl-N4-[4-[3-(4-fluorophenyl)-1H-pyrazol-4-yl]-2-pyrimidinyl]-1,4-pentanediamine]	290	92	41 nM and 60 nM and 40 nM	6	45
C[C@@H](O)CNc1cc(-c2c[nH]nc2-c2ccc(F)cc2)ccn1 [Example A-368, (2R)-1-[[4-[3-(4-fluorophenyl)-1H-pyrazol-4-yl]-2-pyridinyl]amino]-2-propanol]	660	88	42 nM	28	41
CCN(CC)CCCC(C)Nc1cc(-c2c[nH]nc2-c2ccc(Cl)cc2)ccn1 (stereo not shown) [Example A-369, N4-[4-[3-(4-chlorophenyl)-1H-pyrazol-4-yl]-2-pyridinyl]-N1,N1-diethyl-1,4-pentanediamine]	840	94	19 nM and 11 nM and 2.7 nM	–	52
C[C@H](O)CNc1cc(-c2c[nH]nc2-c2ccc(F)cc2)ccn1 [Example A-370, (2S)-1-[[4-[3-(4-fluorophenyl)-1H-pyrazol-4-yl]-2-pyridinyl]amino]-2-propanol]	1920	90	160 nM	–	46
